For one data set, the system named is level of lipids. The conditions noted are these: background art; cited from earlier work.
The subject of a further data set is blood pressure. The conditions noted are these: background art; cited from earlier work.
The next data set relates to nervus ischiadicus. The data set is described as follows: local analgesic effect (Truant d'Amato's method). The format is in vivo. The conditions noted are these: 0.2 ml injected around nervus ischiadicus. The protocol:
The tests were carried out according to Truant d'Amato's method. 0.2 ml of test material was injected around the nervus ischiadicus in the middle of femur with a needle of 1 cm length. The criterion of analgesic effect was the lack of the motoric control of foot muscles.
The duration of effect was registered and the 50 percentile effective concentration (EC50) was calculated on the basis of the dose-effect curve. Lidocain was used as comparative material. (Truant, A. P., D'Amato, D.: Acta Chir Scand. 116, 351/1958/)

A short description of data set [1]: absorption judged by ED50 per os/ED50 iv. The conditions noted are these: in vivo. The source says:
The compounds of formula I according to the invention can well be absorbed if administered either orally or parenterally.

The subject of another data set is gastric acid secretion. The experiment in a line: gastric acid secretion test (Shay). It counts as in vivo, rat. The following applies: Rattus norvegicus; dose 200 mg/kg po., rats; read-out: Inhibition of free acid, %. The protocol:
The test was carried out according to Shay's operational method. […] On the day of the test the pylorus of the animals was bound under ether narcosis. The test compounds were administered orally 3 hours before the operation. The animals of the control group were administered with the carrier only. 4 hours after the operation the stomach was removed, the content thereof was centrifuged and the amount of free acid was determined by titration with 0.1N sodium hydroxide.

The next data set in a line: LD50 po. on rat. The conditions noted are these: in vivo.
Data set [2] concerns peristalty of stomach and intestines. The data set is described as follows: effect exerted on the peristalty of stomach and intestines (Stickney et al., carbon suspension). The following applies: po., mice. It counts as in vivo, mouse. The protocol: The antiperistaltic effect of the compounds was examined by the method of Stickney et al. on white mice of both sexes, weighing 20 to 25 g. The compounds to be tested were administered per os 60 minutes before the addition of carbon suspension to groups containing 10 mice each. The animals of the control groups were treated at the same time and in the same manner with the carrier only. The mice were killed 10 minutes after the addition of the carbon suspension, and the whole length of the intestines as well as the length of the intestines filled with carbon suspension were measured.

Data set [3] can be described thus: acute toxicity test in mice (Litchfield and Wilcoxon). The format is in vivo, mouse. The conditions noted are these: mouse, in vivo, po., 14 days observation. The method, boiled down:
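CFLP white mice of both sexes (18-22 g, 10 per dose group) were dosed orally at a volume of 20 ml/kg. Animals had free access to water and feed. Toxicity data were calculated by the Litchfield and Wilcoxon method.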

In data set [4] the test system is aconitine-induced ECG alterations. The experiment in a line: animal or person. It counts as in vivo, rat. The method, boiled down: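 Urethane-anaesthetised rats (1.2 g/kg ip., 160–200 g) given aconitine 75 /ug/kg i.v. bolus; lead II ECG scored 0–5 over 5 minutes. Compounds given 2 min (parenteral) or 60 min (oral) before aconitine.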

Like-named read-outs stand apart in the source and are kept apart here.

Consider `OC(CON=Cc1ccc(Cl)cc1)CN1CCN(c2ccccc2Cl)CC1` (stereo not shown) [Peraclopone], for which the “reduction of the level of lipids” value in the data set with level of lipids is listed as “reduces the level of lipids”.
For `COc1cccc(C=NOCC(O)CN2CCN(c3ccccc3OC)CC2)c1` (stereo not shown) [Paradoxime], the “blood pressure reducing activity” value in the data set on blood pressure is given as “shows blood pressure reducing activity”.
Consider `CC(C)N(CC(O)CO/N=C1\CCCC\C1=C/c1ccccc1)C(C)C` (racemic) [Example 1, R,S-2-(E)-Phenylmethylene-1-(E)-{3-[bis-(1-methylethyl)-amino]-2-hydroxy-propoxyimino}-cyclohexane], for which, in the data set with nervus ischiadicus, the EC50 % amounted to 0.04%. In addition, in data set [1], the absorption ratio (ED50 po / ED50 iv) stood at 20.6. Besides, the absorption result in data set [1] (po) is “much better than that of the cited compound of formula (e)”. In addition, in the data set on gastric acid secretion, the inhibition in vivo at 200 mg/kg was 70%. Moreover, the LD50 (commonly the dose expected to kill half of the subjects tested) in “LD50 po. on rat” is 1760 mg/kg. The 50% effective dose (ED50) (usually the midpoint of the dose-response relation) in [2] (Mus musculus, read-out: ED50 (antiperistaltic)) is approximately 80 mg/kg; in data set [4] (Rattus norvegicus, iv, read-out: ED50 iv), 1.21 mg/kg; in data set [4] (Rattus norvegicus, iv, read-out: ED50 iv. (antiarrhythmic)), 1.21 mg/kg; in data set [4] (Rattus norvegicus, po, read-out: ED50 (antiarrhythmic, per os)) it was 27.3 mg/kg; in [4] (Rattus norvegicus, po, read-out: ED50 per os), 24.4 mg/kg. The “TI (therapeutic index)” value is listed as “about 5” in data set [2] (antiperistaltic) and 64.6 in data set [4] (antiarrhythmic, per os, rat). Moreover, the 50% lethal dose (LD50) at 336 h in [3] was 400 mg/kg. Also, the change in vivo at 4 mg/kg in data set [4] (Rattus norvegicus, iv, read-out: Effect % (antiarrhythmic)) is -89.5%. The change in vivo at 100 mg/kg in data set [4] (Rattus norvegicus, po, read-out: Effect % (antiarrhythmic)) is -100%. In data set [4] (administered orally), the “effect compared to the control compounds regarding the absolute dose” value is listed as “multiplied effect compared to the control compounds”. For the same molecule, in data set [4] (per os, rats, vs Quinidine), the “therapeutical activity range, times higher than that of Quinidine” value amounted to 5.8 times.

The values above are taken from patent US5234934A, “Aminopropanol derivatives, process for their preparation and pharmaceutical compositions comprising the same” (priority 1989, dated 1993).
